# Where “and” joins values, the source holds several entries; their conditions need not be identical. Equal values may be shown once.
# Legend:
# Type in all cases: physicochemical
# [1] = Fluorescence emission spectra with excitation at 980 nm (InGaAs NIR detector); details: for fluorescence emission in water: aqueous solution
# Protocol: The emission of D2 was measured in acetonitrile (ACN), ethanol (EtOH), methanol (MeOH). Spectra were recorded on a Quantamaster 8075-21 fluorescence spectrophotometer equipped with a liquid nitrogen cooled cooled DSS-IGA020L/CUS InGaAs NIR detector with excitation at 980 nm and emission recorded from 1000 nm to 1200 nm. The emission spectra as illustrated in FIG. 2 are at equal absorbance at 980 nm for each solvent.
# The fluorescence spectra for an equal absorbance ˜0.13 solution of dyes A, B, C in dichloroethane were determined by exciting at 980 nm (Horiba (Quantamaster 8075-21), nitrogen cooled InGaAs detector) and compared them with a commercially available dye, IR-26 (obtained from Exciton) D as reference. Dye B is more than 2 fold brighter than the reference IR-26 in DCE as illustrated in FIG. 3.
# The fluorescence of dyes A, B and C were also determined in other solvents viz., methanol, ethanol, DMSO and water. […]
# [2] = Absorbance spectra / absorbance maximum in solvents (UV/vis spectrophotometer)
# Text: Normalized spectra thus obtained are shown in FIG. 1 for each fluorochrome compound. […]
# [3] = as above; remark: listed apart in the source
# [4] = DCE, excitation 980 nm, equal absorbance ~0.13
structure (smiles),measurement,setting,value
CCn1/c(=C/C=C2C(Cl)=C(/C=C/C3=[N+](CC)c4cccc5c(S(=O)(=O)[O-])ccc3c45)C3CCC/2C3)c2ccc(S(=O)(=O)O)c3cccc1c32 (centres unmarked) [B],% Fluorescence Relative to C,[1]; DCE,130.82%
same,Fluorescence Max,[1]; [4],1080 nm
same,% Fluorescence Relative to C,[1]; DMSO,80.53%
same,Fluorescence Max,"[1]; DMSO, excitation 980 nm",1092 nm
same,% Fluorescence Relative to C,[1]; EtOH,76.31%
same,Fluorescence Max,"[1]; EtOH, excitation 980 nm",1062 nm
same,% Fluorescence Relative to C,[1]; MeOH,94.80%
same,Fluorescence Max,"[1]; MeOH, excitation 980 nm",1056 nm
same,fluorescence emission in water,[1],highly quenched
same,brightness relative to the reference IR-26,"[1]; in DCE, excitation 980 nm, equal absorbance",more than 2 fold
CCn1/c(=C\C=C2/CCCC(/C=C/C3=[N+](CC)c4ccc(S(=O)(=O)O)c5cccc3c45)=C2Cl)c2cccc3c(S(=O)(=O)O)ccc1c32 [compound 26],Absorption max,[2]; in Methanol,1022 nm
same,Absorption max,[2]; in Water,829 nm
same,Absorption max,[3]; in Acetonitrile,1019 nm
same,Absorption max,[3]; in Chloroform,820 nm
same,Absorption max,[3]; in DMSO,1069 nm and 1065 nm
same,Absorption max,[3]; in Dichloromethane,810 nm
same,Absorption max,[3]; in Ethanol,1032 nm
Cn1/c(=C\C=C2C(Cl)=C(/C=C/C3=[N+](C)c4ccc(S(=O)(=O)[O-])c5cccc3c45)C3CCC\2C3)c2cccc3c(S(=O)(=O)O)ccc1c32 (centres unmarked) [D81],"Abs λmax (absorbance max, UV-Vis λmax)",[2]; methanol,~1026 nm
O=C(O)CCCn1\c(=C/C=C/C=C/C=C/C2=[N+](CCCC(=O)O)c3ccc(S(=O)(=O)[O-])c4cccc2c34)c2cccc3c(S(=O)(=O)O)ccc1c32 [D17],"Abs λmax (absorbance max, UV-Vis λmax)",[2]; methanol,~990 nm
O=S(=O)([O-])CCCC[N+]1=C(/C=C/C2=C(Cl)C(=C/C=c3\c4cccc5cccc(c54)n3CCCCS(=O)(=O)O)/CCC2)c2cccc3cccc1c23 [C],% Fluorescence Relative to C,[1]; DCE,1.00%
same,Fluorescence Max,[1]; [4],1062 nm
same,% Fluorescence Relative to C,[1]; DMSO,1.00%
same,Fluorescence Max,"[1]; DMSO, excitation 980 nm",1074 nm
same,% Fluorescence Relative to C,[1]; EtOH,1.00%
same,Fluorescence Max,"[1]; EtOH, excitation 980 nm",1046 nm
same,% Fluorescence Relative to C,[1]; MeOH,1.00%
same,Fluorescence Max,"[1]; MeOH, excitation 980 nm",1042 nm
same,fluorescence emission in water,[1],highly quenched
O=C(O)CCCn1\c(=C/C=C/C=C/C=C/C2=[N+](CCCS(=O)(=O)O)c3ccc(S(=O)(=O)[O-])c4cccc2c34)c2cccc3c(S(=O)(=O)O)ccc1c32 [D13],"Abs λmax (absorbance max, UV-Vis λmax)",[2]; methanol,~980 nm
O=C(O)CCCn1/c(=C/C=C/C=C/C=C/C2=[N+](CCCC(=O)O)c3ccc(S(=O)(=O)[O-])c4cccc2c34)c2cccc3c(S(=O)(=O)O)ccc1c32 [D74],"Abs λmax (absorbance max, UV-Vis λmax)",[2]; methanol,980 nm
O=S(=O)([O-])CCC[N+]1=C(/C=C/C2=C(Cl)C(=C/C=c3/c4cccc5c(S(=O)(=O)O)ccc(c54)n3CCCS(=O)(=O)O)/C3CCC2C3)c2cccc3c(S(=O)(=O)O)ccc1c23 (centres unmarked) [D15],"Abs λmax (absorbance max, UV-Vis λmax)",[2]; methanol,~1030 nm
CCOC(=O)C1(C(=O)OCC)CC(/C=C/C2=[N+](CCCS(=O)(=O)O)c3ccc(S(=O)(=O)[O-])c4cccc2c34)=CC(=C/C=c2\c3cccc4c(S(=O)(=O)O)ccc(c43)n2CCCS(=O)(=O)O)/C1 [D75],"Abs λmax (absorbance max, UV-Vis λmax)",[2]; methanol,990 nm
O=S(=O)(O)CCCn1/c(=C\C=C2/CCCC(/C=C/C3=[N+](CCCS(=O)(=O)O)c4ccc(S(=O)(=O)[O-])c5cccc3c45)=C2Cl)c2cccc3c(S(=O)(=O)O)ccc1c32 [D85],"Abs λmax (absorbance max, UV-Vis λmax)",[2]; methanol,~1030 nm
CCn1/c(=C/C=C2\CCCC(/C=C/C3=[N+](CC)c4cccc5c(S(=O)(=O)[O-])ccc3c45)=C2Cl)c2ccc(S(=O)(=O)O)c3cccc1c32 [A],% Fluorescence Relative to C,[1]; DCE,90.11%
same,Fluorescence Max,[1]; [4],1064 nm
same,% Fluorescence Relative to C,[1]; DMSO,29.46%
same,Fluorescence Max,"[1]; DMSO, excitation 980 nm",1080 nm
same,% Fluorescence Relative to C,[1]; EtOH,92.92%
same,Fluorescence Max,"[1]; EtOH, excitation 980 nm",1050 nm
same,% Fluorescence Relative to C,[1]; MeOH,86.00%
same,Fluorescence Max,"[1]; MeOH, excitation 980 nm",1046 nm
same,fluorescence emission in water,[1],highly quenched
O=C(O)C[N+]1=C(/C=C/C=C/C=C/C=c2/c3cccc4c(S(=O)(=O)O)ccc(c43)n2CCCS(=O)(=O)O)c2cccc3c(S(=O)(=O)[O-])ccc1c23 [D18],"Abs λmax (absorbance max, UV-Vis λmax)",[2]; methanol,970 nm and ~990 nm
"ClC1=C(/C=C/c2cc(-c3ccccc3)[s+]c3ccccc23)CCC/C1=C\C=C1/C=C(c2ccccc2)Sc2ccccc21.[O-][Cl+3]([O-])([O-])[O-] [D (IR-26), IR-26, reference compound]",% Fluorescence Relative to C,[1]; DCE,58.89%
same,Fluorescence Max,[1]; [4],1118 nm
CCn1\c(=C/C=C(/C=C/C2=[N+](CC)c3ccc(S(=O)(=O)O)c4cccc2c34)c2ccc(C(=O)O)cn2)c2cccc3c(S(=O)(=O)O)ccc1c32 [D71],"Abs λmax (absorbance max, UV-Vis λmax)",[2]; methanol,851 nm
CC1(C)C(/C=C/C=C/C=C/C=c2/c3cccc4c(S(=O)(=O)O)ccc(c43)n2CCCC(=O)O)=[N+](CCCS(=O)(=O)[O-])c2ccc3c(S(=O)(=O)O)cc(S(=O)(=O)O)cc3c21 [D86],"Abs λmax (absorbance max, UV-Vis λmax)",[2]; methanol,~890 nm
O=S(=O)([O-])CCC[N+]1=C(/C=C/C2=C(Cl)C(=C/C=c3/c4cccc5cccc(c54)n3CCCS(=O)(=O)O)/C3CCC2C3)c2cccc3cccc1c23 (centres unmarked) [D72],"Abs λmax (absorbance max, UV-Vis λmax)",[2]; methanol,~1030 nm
same,Abs λmax,"[2]; methanol, unit not given",1026
Cn1/c(=C\C=C2/CCCC(/C=C/C3=[N+](C)c4ccc(S(=O)(=O)[O-])c5cccc3c45)=C2Cl)c2cccc3c(S(=O)(=O)O)ccc1c32 [D82],"Abs λmax (absorbance max, UV-Vis λmax)",[2]; methanol,~1020 nm
O=C(O)Cn1\c(=C/C=C/C=C/C=C/C2=[N+](CC(=O)O)c3ccc(S(=O)(=O)[O-])c4cccc2c34)c2cccc3c(S(=O)(=O)O)ccc1c32 [D19],"Abs λmax (absorbance max, UV-Vis λmax)",[2]; methanol,980 nm and ~1010 nm
O=S(=O)([O-])CCC[N+]1=C(/C=C/C2=C(Cl)C(=C/C=c3/c4cccc5cccc(c54)n3CCCS(=O)(=O)O)/CCC2)c2cccc3cccc1c23 [D84],"Abs λmax (absorbance max, UV-Vis λmax)",[2]; methanol,~1020 nm
C[N+]1=C(/C=C/C=C/C=C/C=c2/c3cccc4c(S(=O)(=O)O)ccc(c43)n2CCCC(=O)O)c2cccc3c(S(=O)(=O)[O-])ccc1c23 [D20],"Abs λmax (absorbance max, UV-Vis λmax)",[2]; methanol,~980 nm
